The source of these data is ChEMBL document CHEMBL5728379, “Pyrido five-element aromatic ring compound, preparation method therefor and use thereof” (2021).

The test is described as follows: Enzyme-Linked Immunosorbent Assay: EZH2 wild type: Experimental method: avdin of a final concentration of 100 nM was used to coat 96-well plate at 10 μL/well, placed in a wet box and shaken overnight, and then 100 μL 3% BSA per well was added and blocked for 1 h at room temperature. PRC2 complex (EZH2/EED/SUZ12/RbAp48/AEBP2), H3 (21-44) me0 substrate, methyl donor SAM and compound were added into each well of the blocked 96-well plate. The total reaction system was 100 μL, placed in a wet box and allowed to react for 1 h on shaker at room temperature. The plate was washed with TBS-T [20 mM Tris-HCl (pH 7.2-7.4, room temperature), 150 mM NaCl, 0.1% (v/v) Tween-20] for 3 times, blocked with 3% BSA for 10 min, and anti-H3K27me3 antibody was added and incubated for 1 h in a wet box on shaker at room temperature. The plate was washed again with TBS-T for 3 times, and blocked with 3% BSA per well for 10 min. Horseradish peroxidase-labeled secondary antibody was added and reacted in a wet box at room temperature for 1 h, and finally, washed with TBS-T for 3 times. 2 mg/ml OPD color developing solution (1004/well) was added for coloring, and the reaction was stopped with 2M H2SO4 (50 μL/well). The plate was read by a plate reader at 490 nm and IC50 of the compound was calculated using SoftMax Pro 5.4.1 software.

pIC50: −log10 of the molar value.

Broadly, the pIC50 is the IC50 on a negative log10 scale, so that one unit is a factor of ten. In the case of `Cc1cc(C)c(CNC(=O)c2cc3cccn3c(C(C)OCc3ccnn3C)c2C)c(=O)[nH]1` (stereo unspecified), the pIC50 is over 7.00.
